Earlier results as cited in article PMC12356143 (RSC Medicinal Chemistry, 2025).

Legend:
M^pro WT = details: literature value; cited from earlier work
FIPV M^pro = details: literature value; cited from earlier work

Compound: Dabcyl-KTSAVLQ↓SGFRKME(Edans)-NH2 [Dabcyl-KTSAVLQ↓S GFRKME(Edans)-NH2]
- K M (M^pro WT): 4.6 × 10^−6 (lit. [23]) M
- k cat (M^pro WT): 0.29 ± 0.03 (lit. [23]) s^−1

Compound: CC(C)CC(NC(=O)OCc1ccccc1)C(=O)NC(CC1CCNC1=O)C(O)S(=O)(=O)O (stereo not shown) [GC376]
- IC50 (FIPV M^pro): 130 ± 20 nM

Compound: O=C(NC(CC1CC1)C(=O)NC(CC1CCNC1=O)C(O)S(=O)(=O)O)OCCc1cccc(Cl)c1 (stereo not shown) [compound 5]
- IC50 (FIPV M^pro): 50 ± 20 nM

Compound: 2-Abz-SVTLQ↓SGY^(NO2)R-OH
- K M (M^pro WT): 80 × 10^−6 (lit. [10]) M
- k cat (M^pro WT): 2.25 ± 0.1 (lit. [10]) s^−1

Compound: COc1cccc2[nH]c(C(=O)NC(CC3CC3)C(=O)NC(CC3CCNC3=O)C(O)S(=O)(=O)O)cc12 (stereo not shown) [compound 4]
- IC50 (FIPV M^pro): 60 ± 20 nM
